Ends that are not written are not given here.

This assay concerns SJL female mice. The assay is described as follows: In vivo activity in experimental allergic encephalitis (EAE) model, pre-immunization with peptide before EAE induction. The conditions noted are these: for Incidence of EAE: number of mice with clinical EAE/number of mice immunized, after two weeks EAE induced with 300 nmoles P81-100 in CFA plus pertussis toxin, observed day 9 up to 60. The procedure:
The in vivo activity of the peptide compounds of formula (I) (SEQ ID NO: 1), were evaluated on four groups of SJL female mice, used at the age of 6-15 weeks. This strain of mice has been genetically selected for its ability to develop experimental allergic encephalitis (EAE).
Two groups of mice have been immunized intraperitoneally with the peptide compound of formula (I) (SEQ ID NO: 1) (300 nmoles), dissolved in 0.05 ml of physiological solution and then emulsified with 0.05 ml of incomplete Freund's adjuvant (IFA) (Sigma, Italy).
As positive and negative control, P81-100 (SEQ ID NO: 5) and IFA alone were used respectively.
After two weeks EAE was induced in all groups by challenge with 300 nmoles of P81-100 (SEQ ID NO: 5) dissolved in 0.1 ml of physiological solution and then emulsified with 0.1 ml of complete Freund's adjuvant (CFA) (Sigma, Italy).
Pertussis toxin (200 ng) (Fluka Chemie AG, Switzerland) was injected intravenously at the time of immunization and 2 days later. The role of pertussis toxin is to enhance the migration of autoreactive lymphocytes through the encephalic barrier (Bernard, et al., "J. Immunol." 114, 1537-1540, 1975).
Mice were observed daily beginning at day 9 up to 60 for clinical signs of EAE and were graded according to the following clinical scale: 1, limp tail; 2, partial hind limp paralysis; 3, complete hind limp paralysis; 4, hind and front limp paralysis; 5, moribund (Broke S. et al., "Nature", 379, 343-346, 1996). Grade 5 mice were euthanized.

Where [1] appears, read: 300 nmoles intraperitoneally in IFA.

For NGVGHGFGNGVGPGTGPGSG [Peptide I], under setting [1], the “Incidence of EAE” value was 0/17. In addition, the “development of EAE” value (result in words, summary of Table 1, SJL mice treated with peptide before EAE induction) was “didn't develop EAE”.
For the molecule `CC[C@H](C)[C@H](NC(=O)[C@H](CC(N)=O)NC(=O)[C@H](CCCCN)NC(=O)[C@H](Cc1ccccc1)NC(=O)[C@H](Cc1ccccc1)NC(=O)[C@H](Cc1c[nH]cn1)NC(=O)[C@@H](NC(=O)[C@@H](NC(=O)[C@@H]1CCCN1C(=O)[C@@H](N)CC(N)=O)C(C)C)C(C)C)C(=O)N[C@H](C(=O)N[C@H](C(=O)N1CCC[C@H]1C(=O)N[C@@H](CCCNC(=N)N)C(=O)N[C@H](C(=O)N1CCC[C@H]1C(=O)N1CCC[C@H]1C(=O)N1CCC[C@H]1C(=O)N[C@@H](CO)C(=O)N[C@@H](CCC(N)=O)C(=O)O)[C@@H](C)O)[C@@H](C)O)C(C)C` [Peptide P81-100], the Day of on-set (mean day of onset ± SD, 300 nmoles intraperitoneally in IFA, after two weeks EAE induced with 300 nmoles P81-100 in CFA) was 33±4.24. Moreover, the Severity (mean severity of sick mice ± SD, clinical scale 1-5, 300 nmoles intraperitoneally in IFA, after two weeks EAE induced with 300 nmoles P81-100 in CFA) was determined as 1.0±0. Moreover, the “Incidence of EAE” value under setting [1] is recorded as 2/17.

Values taken from patent EP1165610B1, “PEPTIDE USEFUL IN TREATING MULTIPLE SCLEROSIS AND A PHARMACEUTICAL COMPOSITION COMPRISING THE SAME” (TECNOGEN S.C.P.A., priority 1999, dated 2006).
